What follows are compounds tested against SUMO-activating enzyme (Homo sapiens, UniProt Q9UBT2) (assay: Inhibition of SAE (unknown origin) using recombinant His-tagged human SUMO1 measured after 2 hrs by HTRF assay). Settings: not given.
Chain of SUMO-activating enzyme (Q9UBE0 whole entry): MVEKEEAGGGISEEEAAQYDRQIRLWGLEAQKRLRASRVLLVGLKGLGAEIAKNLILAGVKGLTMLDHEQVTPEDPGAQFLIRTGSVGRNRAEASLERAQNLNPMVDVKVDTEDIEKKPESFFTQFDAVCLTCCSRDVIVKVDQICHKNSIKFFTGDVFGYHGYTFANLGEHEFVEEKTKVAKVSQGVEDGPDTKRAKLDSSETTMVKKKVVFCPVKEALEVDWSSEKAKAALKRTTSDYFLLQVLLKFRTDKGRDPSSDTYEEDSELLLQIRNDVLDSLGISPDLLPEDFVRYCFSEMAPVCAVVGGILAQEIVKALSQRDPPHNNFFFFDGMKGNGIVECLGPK
Chain of SUMO-activating enzyme (Q9UBT2 whole entry): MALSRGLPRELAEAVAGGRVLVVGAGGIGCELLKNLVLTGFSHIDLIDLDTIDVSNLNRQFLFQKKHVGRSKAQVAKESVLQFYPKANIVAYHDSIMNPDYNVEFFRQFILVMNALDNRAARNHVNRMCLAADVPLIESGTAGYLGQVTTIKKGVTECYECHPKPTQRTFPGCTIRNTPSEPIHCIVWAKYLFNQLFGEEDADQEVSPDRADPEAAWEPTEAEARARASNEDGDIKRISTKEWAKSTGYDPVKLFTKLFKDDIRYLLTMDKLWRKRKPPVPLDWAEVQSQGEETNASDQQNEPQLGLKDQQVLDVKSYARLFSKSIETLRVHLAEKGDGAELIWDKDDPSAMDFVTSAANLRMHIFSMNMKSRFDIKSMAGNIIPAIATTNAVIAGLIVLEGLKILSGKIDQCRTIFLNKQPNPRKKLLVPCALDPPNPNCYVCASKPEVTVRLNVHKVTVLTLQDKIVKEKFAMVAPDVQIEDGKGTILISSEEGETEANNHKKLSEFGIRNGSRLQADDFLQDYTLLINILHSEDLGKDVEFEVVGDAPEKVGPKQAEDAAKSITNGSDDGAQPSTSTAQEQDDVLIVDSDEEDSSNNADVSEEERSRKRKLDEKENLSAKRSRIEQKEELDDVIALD
Assay type: protein-complex assay
NS(=O)(=O)OC[C@H]1C[C@@H](Nc2ncncc2C(=O)c2cn(Cc3ccccc3)c3ccccc23)[C@H](O)[C@@H]1O showed an IC50 of 120 nM.
With NS(=O)(=O)OC[C@H]1C[C@@H](Nc2ncncc2C(=O)c2cn(Cc3ccc(F)c(F)c3)c3ccccc23)[C@H](O)[C@@H]1O the IC50 was 3480 nM.
For C/C=C/Cn1cc(C(=O)c2cncnc2NC2C[C@H](COS(N)(=O)=O)[C@@H](O)[C@H]2O)c2ccccc21 (single isomer, unassigned), the IC50 was 1860 nM.
COc1cccc(Cn2cc(C(=O)c3cncnc3N[C@@H]3C[C@H](COS(N)(=O)=O)[C@@H](O)[C@H]3O)c3ccccc32)c1 showed an IC50 of 40 nM.
In the case of NS(=O)(=O)OC[C@H]1C[C@@H](Nc2ncncc2C(=O)c2cn(Cc3cccc(Cl)c3)c3ccccc23)[C@H](O)[C@@H]1O, the IC50 is reported as 460 nM.
NS(=O)(=O)OC[C@H]1C[C@@H](Nc2ncncc2C(=O)c2cn(Cc3cccc(Br)c3)c3ccccc23)[C@H](O)[C@@H]1O showed an IC50 of 100 nM.
Work on Cc1cc(Cn2cc(C(=O)c3cncnc3N[C@@H]3C[C@H](COS(N)(=O)=O)[C@@H](O)[C@H]3O)c3cc(F)ccc32)ccc1F yielded an IC50 of 1720 nM.
Compound Cc1cccc(Cn2cc(C(=O)c3cncnc3N[C@@H]3C[C@H](COS(N)(=O)=O)[C@@H](O)[C@H]3O)c3cc(F)ccc32)c1 has an IC50 of 680 nM.
NS(=O)(=O)OC[C@H]1C[C@@H](Nc2ncncc2C(=O)c2cn(Cc3cccc(Br)c3)c3ccc(F)cc23)[C@H](O)[C@@H]1O gave an IC50 of 530 nM.
Compound NS(=O)(=O)OC[C@H]1C[C@@H](Nc2ncncc2C(=O)c2cn(Cc3cccc(I)c3)c3ccccc23)[C@H](O)[C@@H]1O has an IC50 of 470 nM.

The compounds below were run against T1, NEDD8 activating enzyme (Homo sapiens, UniProt Q8TBC4) (assay: Inhibition of NAE (unknown origin) using GST-tagged Ubc12 and Flag-tagged Nedd8 measured after 2 hrs by TR-FRET assay). Settings: not given.
T1 sequence (Q8TBC4 whole entry): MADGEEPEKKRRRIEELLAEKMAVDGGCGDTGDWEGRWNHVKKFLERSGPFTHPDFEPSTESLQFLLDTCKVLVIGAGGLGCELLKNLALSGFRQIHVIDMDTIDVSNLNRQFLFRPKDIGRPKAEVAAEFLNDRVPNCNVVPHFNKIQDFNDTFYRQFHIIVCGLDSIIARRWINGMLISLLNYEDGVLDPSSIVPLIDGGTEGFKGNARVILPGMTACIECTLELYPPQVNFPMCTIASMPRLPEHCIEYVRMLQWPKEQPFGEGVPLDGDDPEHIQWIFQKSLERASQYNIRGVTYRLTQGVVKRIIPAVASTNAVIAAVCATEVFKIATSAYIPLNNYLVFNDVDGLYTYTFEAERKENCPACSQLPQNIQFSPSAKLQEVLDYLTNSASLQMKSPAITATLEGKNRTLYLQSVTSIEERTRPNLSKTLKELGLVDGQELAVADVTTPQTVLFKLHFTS
T1 sequence (Q13564 whole entry): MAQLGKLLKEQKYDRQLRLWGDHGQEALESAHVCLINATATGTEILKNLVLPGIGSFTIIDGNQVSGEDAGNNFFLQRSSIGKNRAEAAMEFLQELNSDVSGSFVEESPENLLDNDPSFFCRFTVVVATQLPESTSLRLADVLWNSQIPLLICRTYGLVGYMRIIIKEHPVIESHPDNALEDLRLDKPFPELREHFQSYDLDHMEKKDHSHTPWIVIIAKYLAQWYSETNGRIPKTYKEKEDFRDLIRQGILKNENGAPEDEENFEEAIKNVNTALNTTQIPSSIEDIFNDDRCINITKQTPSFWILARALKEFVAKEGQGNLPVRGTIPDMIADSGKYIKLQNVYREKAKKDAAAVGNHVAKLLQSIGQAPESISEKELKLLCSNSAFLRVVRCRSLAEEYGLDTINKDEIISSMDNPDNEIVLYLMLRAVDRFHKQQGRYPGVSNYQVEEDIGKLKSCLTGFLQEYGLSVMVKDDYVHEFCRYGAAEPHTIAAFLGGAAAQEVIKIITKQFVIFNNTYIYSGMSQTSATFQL
Assay type: protein-complex assay
NS(=O)(=O)OC[C@H]1C[C@@H](Nc2ncncc2C(=O)c2cn(Cc3cc(Cl)ccc3Cl)c3ccccc23)[C@H](O)[C@@H]1O was tested, and the IC50 was 37 nM.
For NS(=O)(=O)OC[C@H]1C[C@@H](Nc2ncncc2C(=O)c2cn(Cc3ccc4ccccc4c3)c3ccc(F)cc23)[C@H](O)[C@@H]1O, the IC50 was 141 nM.
Compound NS(=O)(=O)OC[C@H]1C[C@@H](Nc2ncncc2C(=O)c2cn(Cc3ccccc3)c3ccccc23)[C@H](O)[C@@H]1O has an IC50 of 5 nM.
Compound NS(=O)(=O)OC[C@H]1C[C@@H](Nc2ncncc2C(=O)c2cn(Cc3ccc(F)c(F)c3)c3ccccc23)[C@H](O)[C@@H]1O has an IC50 of 20 nM.
With COc1cccc(Cn2cc(C(=O)c3cncnc3N[C@@H]3C[C@H](COS(N)(=O)=O)[C@@H](O)[C@H]3O)c3ccccc32)c1 the IC50 was 22 nM.
NS(=O)(=O)OC[C@H]1C[C@@H](Nc2ncncc2C(=O)c2cn(Cc3cccc(Cl)c3)c3ccccc23)[C@H](O)[C@@H]1O was tested, and the IC50 was 19 nM.
Work on Cc1cc(Cn2cc(C(=O)c3cncnc3N[C@@H]3C[C@H](COS(N)(=O)=O)[C@@H](O)[C@H]3O)c3cc(F)ccc32)ccc1F yielded an IC50 of 15 nM.
In the case of NS(=O)(=O)OC[C@H]1C[C@@H](Nc2ncncc2C(=O)c2cn(Cc3ccc(S(F)(F)(F)(F)F)cc3)c3ccc(F)cc23)[C@H](O)[C@@H]1O, the IC50 is reported as 10 nM.
NS(=O)(=O)OC[C@H]1C[C@@H](Nc2ncncc2C(=O)c2cn(Cc3cccc(Br)c3)c3ccc(F)cc23)[C@H](O)[C@@H]1O gave an IC50 of 0.9 nM.

These compounds were tested on HCT-116 (assay: Antiproliferative activity against human HCT116 cells after 48 hrs by CCK8 assay). Settings: HCT-116, 48 h, read-out: LD50 (the source's name).
Assay type: functional
For NS(=O)(=O)OC[C@H]1C[C@@H](Nc2ncncc2C(=O)c2cn(Cc3cc(Cl)ccc3Cl)c3ccccc23)[C@H](O)[C@@H]1O, the CC50 was 643 nM.
NS(=O)(=O)OC[C@H]1C[C@@H](Nc2ncncc2C(=O)c2cn(Cc3cc(C(F)(F)F)cc(C(F)(F)F)c3)c3ccccc23)[C@H](O)[C@@H]1O showed a CC50 of 4120 nM.
N#Cc1cccc(Cn2cc(C(=O)c3cncnc3N[C@@H]3C[C@H](COS(N)(=O)=O)[C@@H](O)[C@H]3O)c3ccccc32)c1 showed a CC50 of 15100 nM.
NS(=O)(=O)OC[C@H]1C[C@@H](Nc2ncncc2C(=O)c2cn(Cc3ccccc3)c3ccccc23)[C@H](O)[C@@H]1O gave a CC50 of 228 nM.
NS(=O)(=O)OC[C@H]1C[C@@H](Nc2ncncc2C(=O)c2cn(Cc3ccc(F)c(F)c3)c3ccccc23)[C@H](O)[C@@H]1O showed a CC50 of 2280 nM.
With COc1cccc(Cn2cc(C(=O)c3cncnc3N[C@@H]3C[C@H](COS(N)(=O)=O)[C@@H](O)[C@H]3O)c3ccccc32)c1 the CC50 was 431 nM.
NS(=O)(=O)OC[C@H]1C[C@@H](Nc2ncncc2C(=O)c2cn(Cc3cccc(Cl)c3)c3ccccc23)[C@H](O)[C@@H]1O showed a CC50 of 790 nM.
NS(=O)(=O)OC[C@H]1C[C@@H](Nc2ncncc2C(=O)c2cn(Cc3cccc(Br)c3)c3ccccc23)[C@H](O)[C@@H]1O was tested, and the CC50 was 934 nM.
NS(=O)(=O)OC[C@H]1C[C@@H](Nc2ncncc2C(=O)c2cn(Cc3cccc(Br)c3)c3ccc(F)cc23)[C@H](O)[C@@H]1O showed a CC50 of 1010 nM.
For NS(=O)(=O)OC[C@H]1C[C@@H](Nc2ncncc2C(=O)c2cn(Cc3cccc(I)c3)c3ccccc23)[C@H](O)[C@@H]1O, the CC50 was 587 nM.

The compounds below were run on THP-1 (assay: Antiproliferative activity against human THP1 cells after 48 hrs by CCK8 assay). Settings: THP-1, 48 h, read-out: LD50 (the source's name).
Assay type: functional
Compound NS(=O)(=O)OC[C@H]1C[C@@H](Nc2ncncc2C(=O)c2cn(Cc3cc(Cl)ccc3Cl)c3ccccc23)[C@H](O)[C@@H]1O has a CC50 of 662 nM.
With NS(=O)(=O)OC[C@H]1C[C@@H](Nc2ncncc2C(=O)c2cn(Cc3cc(C(F)(F)F)cc(C(F)(F)F)c3)c3ccccc23)[C@H](O)[C@@H]1O the CC50 was 2780 nM.
In the case of N#Cc1cccc(Cn2cc(C(=O)c3cncnc3N[C@@H]3C[C@H](COS(N)(=O)=O)[C@@H](O)[C@H]3O)c3ccccc32)c1, the CC50 is reported as 13200 nM.
In the case of NS(=O)(=O)OC[C@H]1C[C@@H](Nc2ncncc2C(=O)c2cn(Cc3ccccc3)c3ccccc23)[C@H](O)[C@@H]1O, the CC50 is reported as < 30 nM.
For NS(=O)(=O)OC[C@H]1C[C@@H](Nc2ncncc2C(=O)c2cn(Cc3ccc(F)c(F)c3)c3ccccc23)[C@H](O)[C@@H]1O, the CC50 was 1810 nM.
COc1cccc(Cn2cc(C(=O)c3cncnc3N[C@@H]3C[C@H](COS(N)(=O)=O)[C@@H](O)[C@H]3O)c3ccccc32)c1 was tested, and the CC50 was < 30 nM.
In the case of NS(=O)(=O)OC[C@H]1C[C@@H](Nc2ncncc2C(=O)c2cn(Cc3cccc(Cl)c3)c3ccccc23)[C@H](O)[C@@H]1O, the CC50 is reported as 600 nM.
Work on NS(=O)(=O)OC[C@H]1C[C@@H](Nc2ncncc2C(=O)c2cn(Cc3cccc(Br)c3)c3ccccc23)[C@H](O)[C@@H]1O yielded a CC50 of 223 nM.
In the case of NS(=O)(=O)OC[C@H]1C[C@@H](Nc2ncncc2C(=O)c2cn(Cc3cccc(Br)c3)c3ccc(F)cc23)[C@H](O)[C@@H]1O, the CC50 is reported as 896 nM.
For NS(=O)(=O)OC[C@H]1C[C@@H](Nc2ncncc2C(=O)c2cn(Cc3cccc(I)c3)c3ccccc23)[C@H](O)[C@@H]1O, the CC50 was 163 nM.

Reference: ChEMBL document CHEMBL4482323, “Novel heterocyclic compound, method for preparing same, and pharmaceutical composition comprising same as active ingredient for preventing or treating cancer” (2017)
